{"source": "ChEMBL document CHEMBL1131172", "about": "(J Med Chem, 1998)", "key": {"[1]": {"system": "NCI/ADR-RES", "test": "Inhibition of the growth of breast cancer (MCF7/ADR-RES) cell line", "format": "functional", "conditions": "Homo sapiens"}, "[2]": {"system": "NCI-H23", "test": "Inhibition of the growth of non-small-cell lung cancer (NCI-H23) cell line", "format": "functional", "conditions": "Homo sapiens"}, "[3]": {"system": "UO-31", "test": "Inhibition of the growth of renal cancer(UO-31) cell line at 0.01 uM", "format": "functional", "conditions": "Homo sapiens"}, "[4]": {"system": "SK-MEL-5", "test": "Inhibition of the growth of melanoma cancer (SK-MEL-5) cell line", "format": "functional", "conditions": "Homo sapiens"}, "[5]": {"system": "MCF7", "test": "Inhibition of the growth of breast cancer (MCF-7) cell line", "format": "functional", "conditions": "Homo sapiens"}, "[6]": {"system": "SNB-19", "test": "inhibition of the growth of CNS cancer(SNB-19) cell line", "format": "functional", "conditions": "Homo sapiens"}, "[7]": {"system": "HCT-15", "test": "inhibition of the growth of colon cancer(HCT-15) cell line", "format": "functional", "conditions": "Homo sapiens"}, "[8]": {"system": "HCT-15", "test": "Inhibition of the growth of colon cancer(HCT-15) cell line. value in parentheses is percent inhibition at 0.01 uM", "format": "functional", "conditions": "Homo sapiens"}, "[9]": {"system": "HCT-116", "test": "Inhibition of the growth of colon cancer(HCT116) cell line at 0.01 uM", "format": "functional", "conditions": "Homo sapiens"}, "[10]": {"system": "UO-31", "test": "Inhibition of the growth of renal cancer(UO-31) cell line", "format": "functional", "conditions": "Homo sapiens"}, "[11]": {"system": "MDA-MB-435", "test": "Inhibition of the growth of breast cancer (MDA-MB-435) cell line", "format": "functional", "conditions": "Homo sapiens"}, "[12]": {"system": "DU-145", "test": "Inhibition of the growth of prostate cancer(DU-145) cell line", "format": "functional", "conditions": "Homo sapiens"}, "[13]": {"system": "M14", "test": "Inhibition of the growth of melanoma cancer (M14) cell line at 0.01 uM", "format": "functional", "conditions": "Homo sapiens"}, "[14]": {"molecular_target": "T1, Dihydrofolate reductase (Pneumocystis carinii, UniProt P16184)", "T1 sequence (P16184 whole entry)": "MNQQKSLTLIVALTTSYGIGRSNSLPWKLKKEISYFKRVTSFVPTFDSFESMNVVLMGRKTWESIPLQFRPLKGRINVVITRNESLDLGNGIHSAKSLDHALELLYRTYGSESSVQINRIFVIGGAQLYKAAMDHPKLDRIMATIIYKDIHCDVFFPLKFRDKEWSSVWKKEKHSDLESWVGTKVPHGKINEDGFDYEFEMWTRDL", "description": "Inhibitory activity against dihydrofolate reductase (DHFR) from Pneumocystis carinii"}, "[15]": {"system": "MOLT-4", "test": "Inhibition of the growth of leukemia (MOLT-4) cell line.", "format": "functional", "conditions": "Homo sapiens"}, "[16]": {"system": "SF-295", "test": "Inhibition of the growth of CNS cancer(SF-295) cell line at 0.01 uM", "format": "functional", "conditions": "Homo sapiens"}, "[17]": {"system": "SF-268", "test": "Inhibition of the growth of CNS cancer(SF-268) cell line at 0.01 uM", "format": "functional", "conditions": "Homo sapiens"}, "[18]": {"molecular_target": "T2, Bifunctional dihydrofolate reductase-thymidylate synthase (Toxoplasma gondii, UniProt Q07422)", "T2 sequence (Q07422 whole entry)": "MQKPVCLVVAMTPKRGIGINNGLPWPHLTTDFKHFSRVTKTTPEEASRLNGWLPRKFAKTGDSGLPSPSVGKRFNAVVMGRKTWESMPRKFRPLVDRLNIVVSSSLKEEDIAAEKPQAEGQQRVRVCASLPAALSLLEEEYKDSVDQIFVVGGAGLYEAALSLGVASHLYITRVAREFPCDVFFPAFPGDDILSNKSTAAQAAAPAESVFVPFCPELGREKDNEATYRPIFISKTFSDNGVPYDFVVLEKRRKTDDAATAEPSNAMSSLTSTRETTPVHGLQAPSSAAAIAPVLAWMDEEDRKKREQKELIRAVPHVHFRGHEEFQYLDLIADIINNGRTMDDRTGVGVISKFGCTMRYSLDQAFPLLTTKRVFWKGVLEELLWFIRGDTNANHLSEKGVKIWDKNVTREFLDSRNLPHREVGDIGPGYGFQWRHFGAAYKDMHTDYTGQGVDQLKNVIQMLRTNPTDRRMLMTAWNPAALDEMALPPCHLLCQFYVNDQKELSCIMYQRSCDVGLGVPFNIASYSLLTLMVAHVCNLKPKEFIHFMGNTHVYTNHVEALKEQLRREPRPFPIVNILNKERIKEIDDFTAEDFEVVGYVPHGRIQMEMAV", "description": "Inhibitory activity against dihydrofolate reductase (DHFR) from Toxoplasma gondii"}, "[19]": {"system": "SNB-19", "test": "Inhibition of the growth of CNS cancer(SNB-19) cell line at 0.01 uM", "format": "functional", "conditions": "Homo sapiens"}, "[20]": {"system": "NCI-H23", "test": "Inhibition of the growth of non-small-cell lung cancer (NCI-H23) cell line at 0.01 uM", "format": "functional", "conditions": "Homo sapiens"}, "[21]": {"system": "MDA-N", "test": "Inhibition of the growth of breast cancer(MDA-N) cell line at 0.01 uM", "format": "functional", "conditions": "Homo sapiens"}, "[22]": {"system": "RPMI-8226", "test": "Inhibition of the growth of leukemia (RPMI-8226) cell line at 0.01 uM", "format": "functional", "conditions": "Homo sapiens"}, "[23]": {"system": "OVCAR-8", "test": "Inhibition of the growth of ovarian cancer(OVCAR-8) cell line", "format": "functional", "conditions": "Homo sapiens"}, "[24]": {"system": "CAKI-1", "test": "Inhibition of the growth of renal cancer(CAKI-1) cell line at 0.01 uM", "format": "functional", "conditions": "Homo sapiens"}, "[25]": {"system": "SF-295", "test": "inhibition of the growth of CNS cancer(SF-295) cell line", "format": "functional", "conditions": "Homo sapiens"}}}
{"smiles": "COc1ccc(N(C)c2ccc3nc(N)nc(N)c3n2)cc1", "values": [{"measurement": "GI50", "setting": "[1]", "result": "< 0.01", "unit": "µM"}, {"measurement": "GI50", "setting": "[2]", "result": "< 0.01", "unit": "µM"}, {"measurement": "inhibition at 0.01 µM", "setting": "[3]", "result": 74, "unit": "%"}, {"measurement": "GI50", "setting": "[4]", "result": "< 0.01", "unit": "µM"}, {"measurement": "GI50", "setting": "[5]", "result": 0.06, "unit": "µM"}, {"measurement": "GI50", "setting": "[6]", "result": "< 0.01", "unit": "µM"}, {"measurement": "GI50", "setting": "[7]", "result": "< 0.01", "unit": "µM"}, {"measurement": "inhibition at 0.01 µM", "setting": "[8]", "result": 67, "unit": "%"}, {"measurement": "inhibition at 0.01 µM", "setting": "[9]", "result": 83, "unit": "%"}, {"measurement": "GI50", "setting": "[10]", "result": "< 0.01", "unit": "µM"}, {"measurement": "GI50", "setting": "[11]", "result": "< 0.01", "unit": "µM"}, {"measurement": "GI50", "setting": "[12]", "result": "< 0.01", "unit": "µM"}, {"measurement": "inhibition at 0.01 µM", "setting": "[13]", "result": 55, "unit": "%"}, {"measurement": "IC50", "setting": "[14]", "result": 0.22, "unit": "µM"}, {"measurement": "GI50", "setting": "[15]", "result": 0.02, "unit": "µM"}, {"measurement": "inhibition at 0.01 µM", "setting": "[16]", "result": 62, "unit": "%"}, {"measurement": "inhibition at 0.01 µM", "setting": "[17]", "result": 68, "unit": "%"}, {"measurement": "IC50", "setting": "[18]", "result": 0.0086, "unit": "µM"}, {"measurement": "inhibition at 0.01 µM", "setting": "[19]", "result": 51, "unit": "%"}, {"measurement": "inhibition at 0.01 µM", "setting": "[20]", "result": 54, "unit": "%"}, {"measurement": "inhibition at 0.01 µM", "setting": "[21]", "result": 66, "unit": "%"}, {"measurement": "inhibition at 0.01 µM", "setting": "[22]", "result": 59, "unit": "%"}, {"measurement": "GI50", "setting": "[23]", "result": "< 0.01", "unit": "µM"}, {"measurement": "inhibition at 0.01 µM", "setting": "[24]", "result": 59, "unit": "%"}, {"measurement": "GI50", "setting": "[25]", "result": "< 0.01", "unit": "µM"}]}
